Data on two compounds can be found in US6372781B1, “Compounds for treating gastroduodenal diseases” (Pfizer Inc., priority 1994, dated 2002).

The subject of assay [1] is Helicobacter pylori. Kind of assay: in vitro screen against Helicobacter pylori (agar dilution / microdilution broth MIC). In kind it is cell-based. Background: In agar dilution the substance is mixed into plates at graded concentrations.
In assay [2] the test system is Bacillus cereus. As to conditions: against Bacillus cereus; cited from earlier work.
In assay [3] the test system is Bacillus subtilis. Conditions: against Bacillus subtilis; cited from earlier work.
Assay [4] deals with Escherichia coli. As to conditions: against Escherichia coli; cited from earlier work.
Assay [5] relates to Aspergillus niger. Conditions: against Aspergillus niger; cited from earlier work.
The test system of assay [6] is Botrytis cinerea. Conditions: against Botrytis cinerea; cited from earlier work.
The test system of assay [7] is Cladosporium cucumerinum. Conditions: against Cladosporium cucumerinum; cited from earlier work.
Assay [8] relates to Ophiostoma ulmi. Conditions: against Ophiostoma ulmi; cited from earlier work.
Assay [9] relates to Saccharomyces cerevisiae. Conditions: against Saccharomyces cerevisiae; cited from earlier work.
The test system of assay [10] is Helicobacter pylori. As to conditions: cited from earlier work.

For the compound `COc1cc(O)cc2c1C(=O)OC2CCCCCC1CCCC2(CCC(C)O2)O1` (stereo not shown) [spirolaxine], in [1], the “helicobactericidal activity (kills Helicobacter pylori)” value is reported as “potent helicobactericidal”. Also, the bacteriostatic activity entry in assay [2], in [3] and in assay [4] was “weak bacteriostatic activity” in each case. The antifungal activity entry in assay [5], in [6], in assay [7], in assay [8] and in [9] was “no antifungal activity” in each case.

In the case of colloidal bismuth subcitrate, in assay [10], the helicobactericidal activity result is “helicobactericidal”.
